For 35 compounds, EC1.5 and Emax results are on record in patent publication US20110039847A1, “AMIDE DERIVATIVES AS SIRTUIN MODULATORS” (Sirtris Pharmaceuticals, Inc, priority 2007, published 2011).

This test deals with T1, SIRT1 (Homo sapiens, UniProt Q96EB6).
T1 sequence (Q96EB6 1-747): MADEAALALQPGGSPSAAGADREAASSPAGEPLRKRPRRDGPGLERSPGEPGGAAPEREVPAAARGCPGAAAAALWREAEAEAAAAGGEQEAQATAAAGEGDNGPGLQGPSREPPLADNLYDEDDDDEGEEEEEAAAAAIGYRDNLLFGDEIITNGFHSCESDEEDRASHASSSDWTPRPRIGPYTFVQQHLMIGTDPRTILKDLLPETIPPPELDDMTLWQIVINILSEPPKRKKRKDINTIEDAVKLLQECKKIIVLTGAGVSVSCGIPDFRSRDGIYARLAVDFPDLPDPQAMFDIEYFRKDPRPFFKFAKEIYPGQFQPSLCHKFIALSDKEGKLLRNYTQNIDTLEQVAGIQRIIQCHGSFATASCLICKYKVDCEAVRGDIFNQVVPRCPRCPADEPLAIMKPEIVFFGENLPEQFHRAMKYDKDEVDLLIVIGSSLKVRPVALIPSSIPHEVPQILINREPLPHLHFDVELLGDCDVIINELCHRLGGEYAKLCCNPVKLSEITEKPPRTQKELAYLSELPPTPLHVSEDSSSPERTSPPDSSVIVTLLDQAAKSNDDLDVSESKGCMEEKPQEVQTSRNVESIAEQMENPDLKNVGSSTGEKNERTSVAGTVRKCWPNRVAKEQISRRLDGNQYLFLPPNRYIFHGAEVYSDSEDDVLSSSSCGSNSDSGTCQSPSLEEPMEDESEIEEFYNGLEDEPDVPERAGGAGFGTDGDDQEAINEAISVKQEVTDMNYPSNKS
In words: Mass spectrometry based SIRT1 deacetylation (activation) assay. In kind it is biochemical. The settings on record: 0.5 μM peptide substrate, 120 μM βNAD+, 10 nM SIRT1, 25 min at 25° C.; for Emax: 25 min, read-out: % Fold Act. (percent maximum fold activation).

Counter-ions that a name gives are not always drawn.

Regarding `COCCN(CCOC)c1cc(C(=O)Nc2ccccc2-c2nnc(C(=O)N3CCOCC3)s2)nc(-c2ccccc2)n1` [Compound 92], the EC1.5 result was “A (EC1.5≦1 uM)” and the Emax was not below 300%.
As to `CCN(CCN(C)C)c1cc(C(=O)Nc2ccccc2-c2nnc(C3CCOCC3)s2)nc(-c2ccccc2)n1` [Compound 93, 6-((2-(dimethylamino)ethyl)(ethyl)amino)-2-phenyl-N-(2-(5-(tetrahydro-2H-pyran-4-yl)-1,3,4-thiadiazol-2-yl)phenyl)pyrimidine-4-carboxamide hydrochloride], the EC1.5 result was “A (EC1.5≦1 uM)” and the Emax was not below 300%.
For `CCN1CCN(c2cc(C(=O)Nc3ccccc3-c3nnc(C4CCOCC4)s3)nc(-c3ccccc3)n2)CC1=O` [Compound 94, 6-(4-ethyl-3-oxopiperazin-1-yl)-2-phenyl-N-(2-(5-(tetrahydro-2H-pyran-4-yl)-1,3,4-thiadiazol-2-yl)phenyl)pyrimidine-4-carboxamide], the EC1.5 entry was “A (EC1.5≦1 uM)” and the Emax is 150 to 300%.
On to `O=C1CN(c2cc(C(=O)Nc3ccccc3-c3nncs3)nc(-c3ccccc3)n2)CCN1` [Compound 95], for which the EC1.5 entry is on record as “A (EC1.5≦1 uM)” and the Emax was not below 300%.
With `CCN1CCN(c2cc(C(=O)Nc3ccccc3-c3nncs3)nc(-c3ccccc3)n2)CC1=O` [Compound 96], the EC1.5 result is reported as “A (EC1.5≦1 uM)” and the Emax was 150 to 300%.
As to `CCN(CCN(C)C)c1cc(C(=O)Nc2ccccc2-c2nnc(C3CCOC3)s2)nc(-c2ccccc2)n1` (stereo not shown) [Compound 97, 6-((2-(dimethylamino)ethyl)(ethyl)amino)-2-phenyl-N-(2-(5-(tetrahydrofuran-3-yl)-1,3,4-thiadiazol-2-yl)phenyl)pyrimidine-4-carboxamide], the EC1.5 entry is given as “A (EC1.5≦1 uM)” and the Emax was not below 300%.
In the same order, the values of `CCN(CCN(C)C)c1cc(C(=O)Nc2ccccc2-c2nnc(NS(C)(=O)=O)s2)nc(-c2ccccc2)n1` [Compound 98] are “A (EC1.5≦1 uM)” and not below 300%.
For `O=C(Nc1ccccc1-c1nncs1)c1cc(NC(CO)CO)nc(-c2ccccc2)n1` [Compound 99], the EC1.5 entry is listed as “A (EC1.5≦1 uM)” and the Emax was not below 300%.
In the same order, the values of `O=C(Nc1ccccc1-c1nnc(N2CCOCC2)s1)c1cc(N2CCOCC2)nc(-c2ccccc2)n1` [Compound 100] are “A (EC1.5≦1 uM)” and 150 to 300%.
In the case of `CN(C)CCNc1cc(C(=O)Nc2ccccc2-c2nnc(N3CCOCC3)s2)nc(-c2ccccc2)n1` [Compound 101], the EC1.5 result was “A (EC1.5≦1 uM)” and the Emax was not below 300%.
For `O=C(Nc1ccccc1-c1nnc(N2CCOCC2)s1)c1cc(NC(CO)CO)nc(-c2ccccc2)n1` [Compound 102], the EC1.5 entry is on record as “A (EC1.5≦1 uM)” and the Emax is not below 300%.
Consider `O=C1CN(c2cc(C(=O)Nc3ccccc3-c3nnc(N4CCOCC4)s3)nc(-c3ccccc3)n2)CCN1` [Compound 103], for which the EC1.5 result is recorded as “A (EC1.5≦1 uM)” and the Emax was not below 300%.
In the same order, the values of `CCN1CCN(c2cc(C(=O)Nc3ccccc3-c3nnc(N4CCOCC4)s3)nc(-c3ccccc3)n2)CC1=O` [Compound 104] are “A (EC1.5≦1 uM)” and 150 to 300%.
As to `CCN(CCN(C)C)c1cc(C(=O)Nc2ccccc2-c2nnc(N3CCOCC3)s2)nc(-c2ccccc2)n1` [Compound 105], the EC1.5 entry is “A (EC1.5≦1 uM)” and the Emax was not below 300%.
In the same order, the values of `COCCN(CCOC)c1cc(C(=O)Nc2ccccc2-c2nnc(N3CCOCC3)s2)nc(-c2ccccc2)n1` [Compound 106] are “A (EC1.5≦1 uM)” and 150 to 300%.
Consider `CCN(CCOC)c1cc(C(=O)Nc2ccccc2-c2nnc(N3CCOCC3)s2)nc(-c2ccccc2)n1` [Compound 107], for which the EC1.5 result was “A (EC1.5≦1 uM)” and the Emax lay in the range of 150 to 300%.
Consider `O=C(Nc1ccccc1-c1nnc(N2CCOCC2)s1)c1cc(OC[C@@H](O)CO)nc(-c2ccccc2)n1` [Compound 108], for which the EC1.5 entry is reported as “A (EC1.5≦1 uM)” and the Emax is not below 300%.
In the same order, the values of `O=C(Nc1ccccc1-c1nnc(N2CCOCC2)s1)c1cc(OC[C@H](O)CO)nc(-c2ccccc2)n1` [Compound 109] are “A (EC1.5≦1 uM)” and not below 300%.
With `O=C(Nc1ccccc1-c1nncs1)c1cc(OC[C@@H](O)CO)nc(-c2ccccc2)n1` [Compound 110], the EC1.5 entry is listed as “A (EC1.5≦1 uM)” and the Emax was not below 300%.
For `O=C(Nc1ccccc1-c1nncs1)c1cc(OCC(O)CO)nc(-c2ccccc2)n1` (stereo not shown) [Compound 111], the EC1.5 result is recorded as “A (EC1.5≦1 uM)” and the Emax was not below 300%.
Regarding `CN1CCN(c2cc(C(=O)Nc3ccccc3-c3nncs3)nc(-c3ccccc3)n2)CC1=O` [Compound 112], the EC1.5 result is recorded as “A (EC1.5≦1 uM)” and the Emax was not below 300%.
Consider `CCN(CCN(C)C)c1cc(C(=O)Nc2ccccc2-c2nnc(NC(=O)N3CCOCC3)s2)nc(-c2ccccc2)n1` [Compound 113], for which the EC1.5 result is “A (EC1.5≦1 uM)” and the Emax was not below 300%.
Regarding `CCN(CCN(C)C)c1cc(C(=O)Nc2ccccc2-c2nnc(C(F)=C3CCOCC3)s2)nc(-c2ccccc2)n1` [Compound 114, 6-((2-(dimethylamino)ethyl)(ethyl)amino)-N-(2-(5-(fluoro(2H-pyran-4(3H,5H,6H)-ylidene)methyl)-1,3,4-thiadiazol-2-yl)phenyl)-2-phenylpyrimidine-4-carboxamide], the EC1.5 result is listed as “A (EC1.5≦1 uM)” and the Emax was not below 300%.
Turning to `CCN(CCN(C)C)c1cc(C(=O)Nc2ccccc2-c2nnc(SC)s2)nc(-c2ccccc2)n1` [Compound 115], the EC1.5 result is on record as “A (EC1.5≦1 uM)” and the Emax is not below 300%.
In the case of `CCN(CCN(C)C)c1cc(C(=O)Nc2ccccc2-c2nnc([S+](C)[O-])s2)nc(-c2ccccc2)n1` (stereo not shown) [Compound 116], the EC1.5 result was “A (EC1.5≦1 uM)” and the Emax is not below 300%.
Regarding `COCCNc1cc(C(=O)Nc2ccccc2-c2nnc(N3CCN4CCC[C@H]4C3)s2)nc(-c2ccccc2)n1` [Compound 117], the EC1.5 entry is given as “A (EC1.5≦1 uM)” and the Emax fell in the range of 150 to 300%.
On to `O=C1CN(c2cc(C(=O)Nc3ccccc3-c3nnc(N4CCN5CCC[C@H]5C4)s3)nc(-c3ccccc3)n2)CCN1` [Compound 118], for which the EC1.5 result was “A (EC1.5≦1 uM)” and the Emax lay in the range of 150 to 300%.
Turning to `CN(C)CCNc1cc(C(=O)Nc2ccccc2C(=O)N2CCCC2)nc(-c2ccccc2)n1` [Compound 120, 6-(2-(dimethylamino)ethylamino)-2-phenyl-N-(2-(pyrrolidine-1-carbonyl)phenyl)pyrimidine-4-carboxamide], the EC1.5 result is “C (EC1.5>10 uM)” and the Emax is not below 300%.
With `CN(C)CCNC(=O)c1ccccc1NC(=O)c1cc(NCCN(C)C)nc(-c2ccccc2)n1` [Compound 121, 6-(2-(dimethylamino)ethylamino)-N-(2-(2-(dimethylamino)ethylcarbamoyl)phenyl)-2-phenylpyrimidine-4-carboxamide], the EC1.5 result was “B (EC1.5>1 and ≦10 uM)”; the Emax was 150 to 300%.
For the compound `COCCNC(=O)c1ccccc1NC(=O)c1cc(NCCN(C)C)nc(-c2ccccc2)n1` [Compound 122, 6-(2-(dimethylamino)ethylamino)-N-(2-(2-methoxyethylcarbamoyl)phenyl)-2-phenylpyrimidine-4-carboxamide], the EC1.5 result is on record as “C (EC1.5>10 uM)” and the Emax was not below 300%.
For `CCCCNC(=O)c1ccccc1NC(=O)c1cc(NCCN(C)C)nc(-c2ccccc2)n1` [Compound 123, N-(2-(butylcarbamoyl)phenyl)-6-(2-(dimethylamino)ethylamino)-2-phenylpyrimidine-4-carboxamide], the EC1.5 entry is given as “C (EC1.5>10 uM)” and the Emax is less than 150%.
Consider `CCN(CC)C(=O)c1ccccc1NC(=O)c1cc(NCCN(C)C)nc(-c2ccccc2)n1` [Compound 124, N-(2-(diethylcarbamoyl)phenyl)-6-(2-(dimethylamino)ethylamino)-2-phenylpyrimidine-4-carboxamide], for which the EC1.5 result was “B (EC1.5>1 and ≦10 uM)”; the Emax lay in the range of 150 to 300%.
Take `CNC(=O)c1ccccc1NC(=O)c1cc(NCCN(C)C)nc(-c2ccccc2)n1` [Compound 125, 6-(2-(dimethylamino)ethylamino)-N-(2-(methylcarbamoyl)phenyl)-2-phenylpyrimidine-4-carboxamide]: the EC1.5 result is “B (EC1.5>1 and ≦10 uM)”; the Emax is not below 300%.
For the compound `CCC(=O)c1ccccc1NC(=O)c1cc(NCCN(C)C)nc(-c2ccccc2)n1` [Compound 126], the EC1.5 entry was “B (EC1.5>1 and ≦10 uM)”; the Emax was 150 to 300%.
Take `CCCCC(=O)c1ccccc1NC(=O)c1cc(NCCN(C)C)nc(-c2ccccc2)n1` [Compound 127]: the EC1.5 entry was “B (EC1.5>1 and ≦10 uM)”; the Emax lay within 150 to 300%.
